Laboratory results published in patent US5321030A, “Creatine analogs having antiviral activity” (priority 1991, dated 1994).
In brackets after ≈: the same amount, converted by molar mass. Several values for one entry are separate records, joined by “and”; a condition that tells them apart may be missing. Identical values can stand only once. Like-named read-outs stand apart in the source and are kept apart here.

What was measured:
[1] = system: Varicella-Zoster Virus, strain Oka; assay: microbe, parasite or virus in culture; type: cell-based; set-up: TI50 (CD50 ÷ ED50): unit not given beside the values
[2] = Cytotoxicity in plaque reduction assay, CV-1 cells; type: cell-based, African Green Monkey; conditions: monkey, Table 9B, read-out: CD50 (the source's name)
in vitro [3] = conditions: monkey, vero cells
in vivo = type: in vivo
in vitro [4] = conditions: monkey, vero cells; remark: listed apart in the source
in vitro [5] = conditions: guinea pig, gpe cells
[6] = system: herpes simplex virus type 2 (HSV-2), strain E194; assay: HSV-2 vaginitis in mice; type: in vivo, Swiss Webster female mice
[7] = system: Vesicular stomatitis virus (VSV), Indiana strain; type: cell-based; conditions: 62.5 μg/ml-4 mg/ml; Vero cells and BHK-21 cells; scale 0-4; no drug controls 4.0
DU 145 cells = assay: Drug cytotoxicity in CPE assay, DU 145 cells; conditions: 10 mg/ml, 0 PFUs
[8] = system: HCMV, strain C8704 (DHPG resistant); assay: microbe, parasite or virus in culture; type: cell-based, Human Cytomegalovirus; set-up: TI50 (CD50 ÷ ED50): unit not given beside the values; conditions: for # Plaques: virus control 91.0 ± 8.4
HSV-2 = assay: Cytopathic effect (CPE) assay, HSV-2
[9] = Human alphaherpesvirus 3, CV-1, read-out: % Reduction
[10] = Human alphaherpesvirus 3, MRC5, read-out: % Reduction

SMILES: NC1=NCCN1CC(=O)O [cyclocreatine, 1-carboxymethyl-2-iminoimidazolidine]
- TI50 (CD50 ÷ ED50) ([1]; CV-1 cells, Table 9B): ~ 54
- # Plaques ([1]; CV-1 cells, AM-285 156 μg/ml, virus control 70.25 ± 6.9): 28.5
- # Plaques ([1]; CV-1 cells, AM-285 312.5 μg/ml, virus control 70.25 ± 6.9): 12
- # Plaques ([1]; CV-1 cells, AM-285 625 μg/ml, virus control 70.25 ± 6.9): 3
- # Plaques ([1]; CV-1 cells, AM-285 1250 μg/ml, virus control 70.25 ± 6.9): 1
- # Plaques ([1]; CV-1 cells, AM-285 2500 μg/ml, virus control 70.25 ± 6.9): 0
- # Plaques ([1]; CV-1 cells, AM-285 5000 μg/ml, virus control 70.25 ± 6.9): 0
- # Plaques ([1]; CV-1 cells, AM-285 10000 μg/ml, virus control 70.25 ± 6.9): 0
- inhibition at 156 µg/mL [1, 9]: 59%
- inhibition at 312.5 µg/mL [1, 9]: 83%
- inhibition at 625 µg/mL [1, 9]: 96%
- inhibition at 1250 µg/mL [1, 9]: 98%
- inhibition at 2500 µg/mL [1, 9]: 100%
- inhibition at 5000 µg/mL [1, 9]: 100%
- inhibition at 10000 µg/mL [1, 9]: 100%
- EC50 ([1]; Human alphaherpesvirus 3, CV-1, read-out: ED50): < 156 µg/mL
- EC50 ([1]; Human alphaherpesvirus 3, CV-1, read-out: ED50, approximate value in parentheses): ~107 µg/mL (≈ 0.747 mM)
- inhibition at 62.5 µg/mL [1, 10]: 0%
- inhibition at 125 µg/mL [1, 10]: 0%
- inhibition at 260 µg/mL [1, 10]: 36%
- inhibition at 500 µg/mL [1, 10]: 42%
- inhibition at 1000 µg/mL [1, 10]: 71%
- inhibition at 2000 µg/mL [1, 10]: 91%
- inhibition at 4000 µg/mL [1, 10]: 100%
- EC50 ([1]; Human alphaherpesvirus 3, MRC5, read-out: ED50): 564 µg/mL (≈ 3.94 mM)
- TI50 (CD50 ÷ ED50) ([1]; MRC-5 cells, Table 9A): > 7.1
- # Plaques ([1]; MRC-5 cells, AM-285 62.5 μg/ml, virus control 32.7 ± 9.3): 26
- # Plaques ([1]; MRC-5 cells, AM-285 125 μg/ml, virus control 32.7 ± 9.3): 26
- # Plaques ([1]; MRC-5 cells, AM-285 260 μg/ml, virus control 32.7 ± 9.3): 21
- # Plaques ([1]; MRC-5 cells, AM-285 500 μg/ml, virus control 32.7 ± 9.3): 19
- # Plaques ([1]; MRC-5 cells, AM-285 1000 μg/ml, virus control 32.7 ± 9.3): 9.5
- # Plaques ([1]; MRC-5 cells, AM-285 2000 μg/ml, virus control 32.7 ± 9.3): 3
- # Plaques ([1]; MRC-5 cells, AM-285 4000 μg/ml, virus control 32.7 ± 9.3): 0
- CC50 [2]: 5790 µg/mL (≈ 40.4 mM)
- CC50 (in vitro [3]): > 4000 µg/mL and > 28 mM
- tolerance in the diet (in vivo; 1% in mouse chow): well-tolerated
- tolerance in toxicity control (in vivo; cream topical, sham-infected mice): well-tolerated and caused no adverse effects to the vaginal area
- survival (in vivo; mouse, in vivo, 1 %, read-out: Survivors/Total (%)): 100%
- Weight Change (in vivo; uninfected, AM-285 1% dietary, combined animal weights day 0 to day 15): 7.8 g
- CC50 (in vitro [4]): > 4000 µg/mL
- CC50 (in vitro [5]): > 10000 µg/mL
- antiviral effect in vaginitis model ([6]; 1% dietary): comparable to that achieved by acyclovir at 200 mg/kg, 100 mg/kg or 50 mg/kg
- average lesion score ([6]; 1% in chow, Grand Ave. (Days 3-14)): 0.8 ± 0.2
- average lesion score ([6]; 1% in chow, day 3): 0.2 ± 0.2
- average lesion score ([6]; 1% in chow, day 4): 0.5 ± 0.7
- average lesion score ([6]; 1% in chow, day 5): 0.9 ± 1.3
- average lesion score ([6]; 1% in chow, day 6): 0.9 ± 1.3
- average lesion score ([6]; 1% in chow, day 7): 0.8 ± 1.4
- average lesion score ([6]; 1% in chow, day 8): 0.8 ± 1.4
- average lesion score ([6]; 1% in chow, day 9): 1.0 ± 1.3
- average lesion score ([6]; 1% in chow, day 10): 1.1 ± 1.3
- average lesion score ([6]; 1% in chow, day 11): 1.0 ± 1.3
- average lesion score ([6]; 1% in chow, day 12): 0.9 ± 1.3
- average lesion score ([6]; 1% in chow, day 13): 0.9 ± 1.4
- average lesion score ([6]; 1% in chow, day 14): 0.7 ± 1.4
- activity in vaginitis model ([6]; 5% and […] cream topical): inactive
- average lesion score ([6]; 5% cream topical, Grand Ave. (Days 3-14)): 2.3 ± 1.1
- average lesion score ([6]; 5% cream topical, day 3): 0.3 ± 0.3
- average lesion score ([6]; 5% cream topical, day 4): 0.4 ± 0.4
- average lesion score ([6]; 5% cream topical, day 5): 1.5 ± 1.1
- average lesion score ([6]; 5% cream topical, day 6): 2.1 ± 1.6
- average lesion score ([6]; 5% cream topical, day 7): 2.0 ± 1.3
- average lesion score ([6]; 5% cream topical, day 8): 2.8 ± 1.8
- average lesion score ([6]; 5% cream topical, day 9): 3.2 ± 1.6
- average lesion score ([6]; 5% cream topical, day 10): 3.2 ± 1.5
- average lesion score ([6]; 5% cream topical, day 11): 3.1 ± 1.5
- average lesion score ([6]; 5% cream topical, day 12): 3.0 ± 1.5
- average lesion score ([6]; 5% cream topical, day 13): 3.0 ± 1.5
- average lesion score ([6]; 5% cream topical, day 14): 3.0 ± 1.5
- survival ([6]; 10% cream topical (16% in the placebo group)): 40%
- effect on average lesion score ([6]; 10% cream topical, FIG. 10): slightly reduces the average lesion score
- average lesion score ([6]; 10% cream topical, Grand Ave. (Days 3-14)): 1.6 ± 0.8
- average lesion score ([6]; 10% cream topical, day 3): 0.2 ± 0.2
- average lesion score ([6]; 10% cream topical, day 4): 0.1 ± 0.2
- average lesion score ([6]; 10% cream topical, day 5): 0.9 ± 1.2
- average lesion score ([6]; 10% cream topical, day 6): 1.4 ± 1.9
- average lesion score ([6]; 10% cream topical, day 7): 1.6 ± 1.9
- average lesion score ([6]; 10% cream topical, day 8): 2.0 ± 2.0
- average lesion score ([6]; 10% cream topical, day 9): 2.2 ± 1.9
- average lesion score ([6]; 10% cream topical, day 10): 2.2 ± 1.9
- average lesion score ([6]; 10% cream topical, day 11): 2.1 ± 1.9
- average lesion score ([6]; 10% cream topical, day 12): 2.0 ± 1.9
- average lesion score ([6]; 10% cream topical, day 13): 2.0 ± 1.9
- average lesion score ([6]; 10% cream topical, day 14): 2.0 ± 1.9
- average lesion score ([6]; […] cream topical, Grand Ave. (Days 3-14)): 2.0 ± 0.9
- average lesion score ([6]; […] cream topical, day 3): 0.2 ± 0.2
- average lesion score ([6]; […] cream topical, day 4): 0.4 ± 0.6
- average lesion score ([6]; […] cream topical, day 5): 1.2 ± 1.3
- average lesion score ([6]; […] cream topical, day 6): 1.8 ± 1.8
- average lesion score ([6]; […] cream topical, day 7): 2.2 ± 1.8
- average lesion score ([6]; […] cream topical, day 8): 2.7 ± 1.7
- average lesion score ([6]; […] cream topical, day 9): 2.4 ± 1.9
- average lesion score ([6]; […] cream topical, day 10): 2.6 ± 1.7
- average lesion score ([6]; […] cream topical, day 11): 2.6 ± 1.7
- average lesion score ([6]; […] cream topical, day 12): 2.6 ± 1.7
- average lesion score ([6]; […] cream topical, day 13): 2.6 ± 1.7
- average lesion score ([6]; […] cream topical, day 14): 2.6 ± 1.7
- activity in vaginitis model, second experiment ([6]; cream topical): weak, but not statistically significant, activity
- Mean Day to Death ([6]; virus infected, AM-285 1% dietary): 6.0 ± 0.0
- CPE grade [7]: 4.0
- cytotoxicity (DU 145 cells): some cytotoxicity
- # Plaques ([8]; AM 285 156.25 μg/ml): 81
- # Plaques ([8]; AM 285 312.5 μg/ml): 65.5
- # Plaques ([8]; AM 285 625 μg/ml): 52.5
- # Plaques ([8]; AM 285 1250 μg/ml): 48.5
- # Plaques ([8]; AM 285 2500 μg/ml): 14.5
- # Plaques ([8]; AM 285 5000 μg/ml): 3.5
- # Plaques ([8]; AM 285 10000 μg/ml): 0
- inhibition at 156.25 µg/mL ([8]; Human betaherpesvirus 5, MRC5, AM 285 156.25 μg/ml, read-out: % Reduction): 0%
- inhibition at 312.5 µg/mL ([8]; Human betaherpesvirus 5, MRC5, AM 285 312.5 μg/ml, read-out: % Reduction): 28%
- inhibition at 625 µg/mL ([8]; Human betaherpesvirus 5, MRC5, AM 285 625 μg/ml, read-out: % Reduction): 42%
- inhibition at 1250 µg/mL ([8]; Human betaherpesvirus 5, MRC5, AM 285 1250 μg/ml, read-out: % Reduction): 47%
- inhibition at 2500 µg/mL ([8]; Human betaherpesvirus 5, MRC5, AM 285 2500 μg/ml, read-out: % Reduction): 84%
- inhibition at 5000 µg/mL ([8]; Human betaherpesvirus 5, MRC5, AM 285 5000 μg/ml, read-out: % Reduction): 96%
- inhibition at 10000 µg/mL ([8]; Human betaherpesvirus 5, MRC5, AM 285 10000 μg/ml, read-out: % Reduction): 100%
- EC50 ([8]; Human betaherpesvirus 5, MRC5, MRC-5 cells, Table 6, read-out: ED50 (the source's name)): 900 µg/mL (≈ 6.29 mM)
- TI50 (CD50 ÷ ED50) ([8]; MRC-5 cells, Table 6): > 11.1
- EC50 (HSV-2; Human alphaherpesvirus 2, Vero, read-out: ED50): 1690 µg/mL and 11 mM
- EC (60 or 70) (HSV-2; Human alphaherpesvirus 2, Vero, read-out: concentration required to inhibit cytopathogenicity by 60% or 70%): 35000 µM
- effect on cytopathic effect (HSV-2; contact-inhibited A459 cells): inhibited the cytopathic effect
- effect on cytopathic effect (HSV-2; contact-inhibited BalbC/3T3 cells, FIG. 4A): inhibited the cytopathic effect
- effect on cytopathic effect (HSV-2; serum-starved DU145 cells, FIG. 6A): inhibited the cytopathic effect
- TI (HSV-2; serum-starved Vero cells): > 5.5
- effect on cytopathic effect (HSV-2; serum-starved Vero cells, FIG. 2A): inhibits the cytopathic effect
